Read-outs that look alike come from different tables or passages of the source.
Tests used:
[1] = molecular target: STK10 (Homo sapiens, UniProt O94804); conditions: KINOMEscan, kinase STK10; as reported in Nakamura et al (2018); cited from earlier work
[2] = tested on: GCN2; conditions: KINOMEscan, kinase GCN2; as reported in Nakamura et al (2018); cited from earlier work
[3] = molecular target: T1, MAP2K5 (Homo sapiens, UniProt Q13163); conditions: KINOMEscan, kinase MAP2K5; as reported in Nakamura et al (2018); cited from earlier work
T1 sequence (Q13163 1-448): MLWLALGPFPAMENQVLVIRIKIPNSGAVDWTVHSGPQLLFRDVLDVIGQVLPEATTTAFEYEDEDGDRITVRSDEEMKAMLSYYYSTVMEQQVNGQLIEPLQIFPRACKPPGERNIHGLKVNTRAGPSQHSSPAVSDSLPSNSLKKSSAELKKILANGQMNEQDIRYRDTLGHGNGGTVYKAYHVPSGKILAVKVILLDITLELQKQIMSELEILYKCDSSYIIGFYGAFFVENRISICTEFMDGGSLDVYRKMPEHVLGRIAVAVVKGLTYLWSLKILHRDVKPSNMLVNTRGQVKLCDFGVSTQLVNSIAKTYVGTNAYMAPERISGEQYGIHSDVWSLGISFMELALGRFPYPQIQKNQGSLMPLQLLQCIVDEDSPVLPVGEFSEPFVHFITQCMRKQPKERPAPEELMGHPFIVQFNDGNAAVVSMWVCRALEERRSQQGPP

[4] = molecular target: T2, full-length human GCN2 enzyme (Homo sapiens, UniProt Q9P2K8); test: GCN2 enzyme inhibition, LanthaScreen TR-FRET Kinase Activity assay (10 μM and 300 μM ATP); format: biochemical; conditions: for IC50 / Ki: mean of replicate assays
T2 construct: purchased Carna Bioscience
T2 sequence (Q9P2K8 whole entry): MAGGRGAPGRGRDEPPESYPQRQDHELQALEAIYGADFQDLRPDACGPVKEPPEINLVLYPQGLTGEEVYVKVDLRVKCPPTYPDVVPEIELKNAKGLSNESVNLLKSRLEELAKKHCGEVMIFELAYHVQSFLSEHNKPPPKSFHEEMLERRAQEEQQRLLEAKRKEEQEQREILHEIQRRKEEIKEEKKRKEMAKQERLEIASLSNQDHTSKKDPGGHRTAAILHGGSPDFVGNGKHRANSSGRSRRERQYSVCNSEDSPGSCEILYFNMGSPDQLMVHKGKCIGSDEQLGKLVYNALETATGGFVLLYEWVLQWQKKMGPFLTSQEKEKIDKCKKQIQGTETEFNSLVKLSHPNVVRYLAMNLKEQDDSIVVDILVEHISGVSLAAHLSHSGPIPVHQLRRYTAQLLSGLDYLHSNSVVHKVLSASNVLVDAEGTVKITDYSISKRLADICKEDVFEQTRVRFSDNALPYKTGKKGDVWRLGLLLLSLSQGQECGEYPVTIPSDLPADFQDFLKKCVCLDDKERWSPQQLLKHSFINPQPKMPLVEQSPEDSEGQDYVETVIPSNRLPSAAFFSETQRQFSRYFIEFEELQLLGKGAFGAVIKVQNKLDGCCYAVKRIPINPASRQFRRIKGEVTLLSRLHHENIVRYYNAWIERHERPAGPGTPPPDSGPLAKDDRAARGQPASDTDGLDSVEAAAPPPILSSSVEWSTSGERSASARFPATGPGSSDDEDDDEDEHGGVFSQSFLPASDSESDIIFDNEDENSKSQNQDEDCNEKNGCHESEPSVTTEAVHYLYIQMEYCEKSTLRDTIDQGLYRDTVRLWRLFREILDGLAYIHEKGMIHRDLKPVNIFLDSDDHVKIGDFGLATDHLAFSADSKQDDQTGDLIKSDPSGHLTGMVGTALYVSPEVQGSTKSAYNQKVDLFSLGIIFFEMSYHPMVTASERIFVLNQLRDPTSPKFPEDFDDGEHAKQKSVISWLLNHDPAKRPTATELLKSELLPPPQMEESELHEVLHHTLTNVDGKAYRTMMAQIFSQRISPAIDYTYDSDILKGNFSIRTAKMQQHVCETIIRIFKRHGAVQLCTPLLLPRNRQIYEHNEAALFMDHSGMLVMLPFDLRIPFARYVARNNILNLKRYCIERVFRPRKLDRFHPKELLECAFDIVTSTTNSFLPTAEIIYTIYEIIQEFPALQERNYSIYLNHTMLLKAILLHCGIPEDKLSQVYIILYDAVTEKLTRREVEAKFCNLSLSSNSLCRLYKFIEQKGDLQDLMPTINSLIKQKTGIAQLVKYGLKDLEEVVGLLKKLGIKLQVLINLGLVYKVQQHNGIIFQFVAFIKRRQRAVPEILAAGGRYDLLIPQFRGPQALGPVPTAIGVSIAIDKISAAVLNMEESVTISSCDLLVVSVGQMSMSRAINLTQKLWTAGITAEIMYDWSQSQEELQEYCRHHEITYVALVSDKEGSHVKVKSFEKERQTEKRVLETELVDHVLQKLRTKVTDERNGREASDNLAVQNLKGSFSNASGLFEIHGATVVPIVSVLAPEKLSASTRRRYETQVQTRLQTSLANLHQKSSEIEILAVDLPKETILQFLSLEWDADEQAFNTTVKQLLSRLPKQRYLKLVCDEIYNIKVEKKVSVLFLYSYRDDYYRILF
Description: Biological and Pharmacokinetic Testing (a) GCN2 Enzyme Inhibition (10 μM and 300 μM Assays) Assay Protocol Overview:
The inhibitory activity of the Example compounds towards GCN2 enzyme was measured according to the description below, using a LanthaScreen TR-FRET (Time Resolved Fluorescence Resonance Energy Transfer) Kinase Activity assay distributed by ThermoFisher Scientific.
The full-length human GCN2 enzyme (UniProt accession number Q9P2K8) was used for all experiments (Carna Bioscience). The TR-FRET pair was composed of GFP-eIF2α and LanthaScreen Terbium-labeled anti-peIF2α (pSer52) Antibody.
Each example compound was dissolved in DMSO (0.15 mM) and dispensed in a 384-well plate by a D300 dispenser (Tecan) to a final concentration range 3000-0.13 nM using the logarithmic dilution mode in 2 replicates. Full inhibition (3000 nM commercial reference inhibitor) and DMSO vehicle control wells were also included on the same plate. All volumes were normalized to the final DMSO concentration of 2% of the reaction volume. Next, 5 μL of H2O was added to each well of the plate.
The enzyme mixture was prepared to obtain the following concentrations: • GCN2—30 nM • unloaded tRNA—0.3 nM • HEPES (pH=7.0)—100 mM • MgCl2—20 mM; MnCl2—10 mM
The mixture was applied by adding 5 μL to each well of the plate. The enzyme and the tested compound were then incubated at room temperature for 20 min while shaking at 450 rpm.
The substrate mixture was prepared to obtain the following concentrations: • GFP-eIF2α—240 nM • ATP—900 μM or 30 μM • HEPES (pH=7.0)—50 mM • MgCl2—10 mM • MnCl2—5 mM.
The mixture was applied by adding 5 μL to each well of the plate. Thus, the final concentrations of the 15 μL reaction mixture were as follows: • GCN2—10 nM • unloaded tRNA—0.1 nM • GFP-eIF2α—80 nM • ATP—300 μM or 10 μM • HEPES (1 M, pH=7.0)—50 mM • MgCl2—10 mM • MnCl2—5 mM.
The reaction was allowed to proceed at room temperature for 30 min while shaking at 450 rpm.
The antibody mixture was prepared to obtain the following concentrations: • Na2EDTA·2H2O—40 mM, in TR-FRET Dilution Buffer (Life technologies) • Tb—anti-peIF2a antibodies—4 nM.
The mixture was applied by adding 15 μL to each well. The plate was then incubated at room temperature for 60 min while shaking at 450 rpm and then read using Tecan Spark reader using specific TR-FRET filters.
The analysis of the GFP/Tb fluorescence results was conducted with GraphPad Prism to determine IC50 for each of the example compounds using 4-parameter model: log(inhibitor) vs. response-variable slope. IC50 and K, values were calculated in the usual way. The assay was carried out between 1 and 15 times. The results in the table below are the mean results from replicate assays for the compound in question, where applicable.

[5] = molecular target: ZAK (Homo sapiens, UniProt Q9NYL2); conditions: KINOMEscan, kinase ZAK; as reported in Nakamura et al (2018); cited from earlier work
ZAK, sequence (Q9NYL2 whole entry): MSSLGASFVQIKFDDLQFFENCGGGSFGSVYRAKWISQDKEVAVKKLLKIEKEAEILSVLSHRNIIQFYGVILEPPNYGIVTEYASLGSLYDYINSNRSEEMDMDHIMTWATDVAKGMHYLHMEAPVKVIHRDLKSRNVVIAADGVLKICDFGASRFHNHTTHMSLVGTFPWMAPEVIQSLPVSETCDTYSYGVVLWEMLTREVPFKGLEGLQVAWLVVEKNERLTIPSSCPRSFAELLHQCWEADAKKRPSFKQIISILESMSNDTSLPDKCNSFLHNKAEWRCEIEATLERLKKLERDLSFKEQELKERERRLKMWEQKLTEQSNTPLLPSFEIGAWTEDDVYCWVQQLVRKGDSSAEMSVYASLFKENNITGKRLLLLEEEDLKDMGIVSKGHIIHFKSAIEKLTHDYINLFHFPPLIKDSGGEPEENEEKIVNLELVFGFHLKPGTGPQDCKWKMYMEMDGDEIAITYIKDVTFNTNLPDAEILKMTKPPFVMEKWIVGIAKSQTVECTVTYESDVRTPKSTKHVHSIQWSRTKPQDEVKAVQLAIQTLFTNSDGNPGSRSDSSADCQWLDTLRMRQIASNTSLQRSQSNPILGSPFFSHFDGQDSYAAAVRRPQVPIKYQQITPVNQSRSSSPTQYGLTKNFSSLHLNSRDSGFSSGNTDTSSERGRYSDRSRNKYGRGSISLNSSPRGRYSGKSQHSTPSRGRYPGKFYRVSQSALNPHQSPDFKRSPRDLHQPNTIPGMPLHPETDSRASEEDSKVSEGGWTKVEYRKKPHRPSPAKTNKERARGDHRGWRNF

[6] = Kinetic solubility in PBS buffer pH 7.4; format: physicochemical; conditions: for solubility kinetic at 90 min: aqueous buffer, kinetic from dmso stock, PBS buffer pH 7.4, 90 minutes at room temperature, from 10 mM DMSO stock
Description: The kinetic solubility assay investigates a solubility based on the amount of material which remains in solution after a precipitation process. […] Assay is performed using Multiscreen Vacuum Manifold. A buffer of interest (in standard protocol PBS buffer at pH=7.4 is used) is spiked with stock solution and incubated for 90 minutes at room temperature. After that time solution/suspension is filtrated. The concentration of each compound is determined on the base of prepared calibration curve using UV-VIS spectrophotometry method. The assay is made in triplicate.
Buffer of interest: 0.24 g of KH2PO4, 1.44 g of Na2HPO4, 0.2 g of KCl and 8 g NaCl and dissolve in 1 L distilled H2O; adjust pH to appropriate value (pH 7.4). 190 μl of buffer of interest was dispensed into the wells of a 96 well filter plate, followed by 10 μl of compound (10 mM stock solution in DMSO). The plate was shaken gently at room temperature for 90 minutes at 500 rpm using a BioSan, Plate Shaker-Thermostat, PST-60 HL-4. After 90 minutes, the plate was filtered using a vacuum manifold and vacuum pump. 100 μl of each filtrate and 100 μl acetonitrile was transferred to a 96 well UV-visible light transparent plate and the UV-visible absorption spectrum was measured using a Biotek Synergy 2 multiplate reader from 250-500 nm, interval range 10 nm. The amount of test compound was calculated using a calibration curve prepared by serial dilution of compounds in equivalent amounts of DMSO and acetonitrile.

[7] = tested on: GCN2; test: KINOMEscan competition binding assay, GCN2; set-up: species or system human; conditions: kinase GCN2
Description: (§1) Compounds were tested for activity against off-target kinases using the KINOMEscan™ screening platform, which employs a novel and proprietary active site-directed competition binding assay to quantitatively measure interactions between test compounds and hundreds of human kinases and disease relevant mutant variants.
(§2) For most assays, kinase-tagged T7 phage strains were grown in parallel in 24-well blocks in an E. coli host derived from the BL21 strain. E. coli were grown to log-phase and infected with T7 phage from a frozen stock (multiplicity of infection=0.4) and incubated with shaking at 32° C. until lysis (90-150 minutes). The lysates were centrifuged (6,000×g) and filtered (0.2 μm) to remove cell debris. The remaining kinases were produced in HEK-293 cells and subsequently tagged with DNA for qPCR detection. […] The liganded beads were blocked with excess biotin and washed with blocking buffer (SeaBlock (Pierce), 1% BSA, 0.05% Tween 20, 1 mM DTT) to remove unbound ligand and to reduce non-specific phage binding. […] Test compounds were prepared as 40× stocks in 100% DMSO and directly diluted into the assay. All reactions were performed in polypropylene 384-well plates in a final volume of 0.02 ml. […] The kinase concentration in the eluates was measured by qPCR.

[8] = molecular target: off-target kinases; test: KINOMEscan kinase selectivity panel; format: binding, human; conditions: kinases other than those at <0.5%
Description: as §1, §2

[9] = molecular target: T3, MEK5 (Homo sapiens, UniProt Q13163); test: KINOMEscan competition binding assay, MEK5; conditions: kinase MEK5
T3 construct: host or cells: E. coli BL21-derived (T7 phage) or HEK-293
T3 sequence (Q13163 1-448): T1 sequence (Q13163 1-448)
Description: as §1, §2

[10] = read-out: GCN2 IC50 (nM) 10 uM ATP, 10 uM ATP
[11] = read-out: GCN2 IC50 (nM) 300 uM ATP, 300 uM ATP
[12] = read-out: GCN2 Ki (nM) 10 uM ATP, 10 uM ATP
[13] = read-out: GCN2 Ki (nM) 300 uM ATP, 300 uM ATP

STK10, sequence (O94804 whole entry): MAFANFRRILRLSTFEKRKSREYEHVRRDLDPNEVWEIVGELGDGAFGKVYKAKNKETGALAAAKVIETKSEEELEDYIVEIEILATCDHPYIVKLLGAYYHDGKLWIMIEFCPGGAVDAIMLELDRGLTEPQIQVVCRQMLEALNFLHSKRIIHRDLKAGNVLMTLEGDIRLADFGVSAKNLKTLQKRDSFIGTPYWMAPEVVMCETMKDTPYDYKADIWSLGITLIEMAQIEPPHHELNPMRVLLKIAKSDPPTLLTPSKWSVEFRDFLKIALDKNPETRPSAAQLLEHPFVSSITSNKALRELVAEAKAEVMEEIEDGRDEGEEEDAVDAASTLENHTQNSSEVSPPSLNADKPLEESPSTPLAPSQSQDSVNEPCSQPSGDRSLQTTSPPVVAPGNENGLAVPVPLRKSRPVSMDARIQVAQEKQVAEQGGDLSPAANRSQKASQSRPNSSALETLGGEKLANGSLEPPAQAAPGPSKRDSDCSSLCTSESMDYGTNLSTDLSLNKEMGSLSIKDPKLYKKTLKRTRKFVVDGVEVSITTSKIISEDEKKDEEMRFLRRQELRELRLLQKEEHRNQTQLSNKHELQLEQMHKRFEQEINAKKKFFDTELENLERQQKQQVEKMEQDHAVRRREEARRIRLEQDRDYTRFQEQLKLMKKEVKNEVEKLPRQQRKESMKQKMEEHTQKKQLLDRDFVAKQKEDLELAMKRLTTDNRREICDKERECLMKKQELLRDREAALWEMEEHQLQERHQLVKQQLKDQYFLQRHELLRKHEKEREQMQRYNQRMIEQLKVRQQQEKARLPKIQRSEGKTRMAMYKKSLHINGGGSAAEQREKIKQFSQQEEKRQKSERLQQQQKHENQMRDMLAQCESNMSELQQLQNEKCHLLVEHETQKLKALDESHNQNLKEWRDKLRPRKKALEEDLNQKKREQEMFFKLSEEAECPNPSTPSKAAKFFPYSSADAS

Row | Structure (SMILES) | % Control [1] [%] | % Control [2] [%] | % Control [3] [%] | IC50 [4, 10] [nM] | IC50 [4, 11] [nM] | Ki [4, 12] [nM] | Ki [4, 13] [nM] | % Control [5] [%] | solubility kinetic at 90 min [6] [µg/mL] | % Control [7] [%] | GCN2 inhibitory activity (in words) [4] | Kinases with % Control <5% [8] | kinetic solubility (in words) [6] | % Control [9] [%]
1 | COc1ncc(Cl)cc1S(=O)(=O)Nc1ccc(F)c(C#Cc2cnc(N)nc2)c1F [Comp Ex 1, reference compound] | <5 | <0.5 | <5 | 5.9 | 59.2 | 1.9 | 0.9 | <5 | 4.7 |  |  |  |  | 
2 | COc1ncc(Cl)cc1S(=O)(=O)Nc1nccc(C#Cc2cnc(N)nc2)c1F [Example 1, N-{4-[2-(2-aminopyrimidin-5-yl)ethynyl]-3-fluoropyridin-2-yl}-5-chloro-2-methoxypyridine-3-sulfonamide] |  |  |  | 7.2 | 103 | 2.3 | 1.6 |  | 218 | <0.5 | strong | None | good | 
3 | COc1ncc(Cl)cc1S(=O)(=O)Nc1nccc(C#Cc2cnc3[nH]ncc3c2)c1F [Example 3, 5-chloro-N-[3-fluoro-4-(2-{1H-pyrazolo[3,4-b]pyridin-5-yl}ethynyl)pyridin-2-yl]-2-methoxypyridine-3-sulfonamide] |  |  |  | 3.5 | 26.5 | 1.1 | 0.6 |  | 229 | <0.5 | strong |  | good | <5
